Experimental data: patent US20260008856A1, “METHODS OF TREATING DISEASE USING ANTI-IL1RAP ANTIBODIES AND ANTIBODY DRUG CONJUGATES” (Bluefin Biomedicine, Inc., priority 2022, published 2026)

Columns and labels:
[1] = tested on: TARC production in HDM stimulated human PBMCs; assay: TARC production in HDM stimulated human PBMCs; assay type: cell-based
From the text: Materials included Human peripheral blood mononuclear cells (PBMCs) that were isolated from healthy donor blood and either frozen in liquid nitrogen and thawed prior to analysis or used fresh. Materials also included HDM (house dust mite extract) that was from Greer lab and purchased through Fisher Scientific (NC9756554, Lot #390844). Additionally, Human IL-4 (204-IL-010) was purchased from R&D Systems; Human IL-13 (200-13) was purchased from Peprotech; JAK inhibitors (JAKi) Abrocitinib (HY-107429) and Upadacitinib (HY-19569) were purchased from MedChemExpress; Dexamethasone (D4902) was purchased from Sigma-Aldrich; Dupilumab (HY-P9926) was purchased from MedChemExpress; Tralokinumab was produced by Bluefin Biomedicine according to the published protein sequence; and TARC ELISA kits (DuoSet Cat #DY364, Quantikine Cat #SDN00) were purchased from R&D Systems.
Blood was drawn in heparin tubes from healthy volunteers. PBMCs were isolated by centrifugation of the blood over Ficoll-Paque Plus density gradients using LeucoSep tubes.
(§1) 0.2 million PBMCs in 100 ul medium (RPMI1640, 10% heat-inactivated FBS) were added to each well of 96 well cell culture plate. BFB759 at multiple concentrations in 50 ul medium was added to the wells. The cells were incubated in the incubator for 45 min. Then, 50 ul HDM solution (final concentration 10 ug/ml) was added to the wells. After 7 days incubation, the supernatant was transferred to a new 96 well plate, and used in TARC ELISA right away, or frozen in −80 C freezer for ELISA later. For the combination studies of BFB759 with other drugs, the single agent or combination of drugs were added to the PBMCs, incubated for 45 min, then HDM solution, or HDM and IL-4 or IL-13 solution were added to the wells. The assay was incubated for 7 days, and the supernatant was harvested for TARC ELISA.

[2] = tested on: normal human dermal fibroblasts (NHDF); assay: IL-6 and IL-8 production in NHDF stimulated with cytokine combo incl. IL-17A; assay type: cell-based; conditions: cytokine combo IL-1α/β, IL-36α/β/γ, antibodies 0-20 ug/ml, BFB759 0.5 ug/ml in combination
Description: (§2) Human NHDF cells were plated on 96-well, flat-bottom plates at 4,000 cells/well. […] For combination therapy, 0.5 ug/ml BFB759 was mixed with Secukinumab or Isotype control antibody at increasing concentrations (0-20 ug/ml, 5-fold dilution) and incubated with cells in duplicate for 45 minutes, prior to the addition of cytokine combo. The plates were then incubated overnight at 37° C., 5% CO2. 24 hours after treatment, supernatants were transferred and assayed for IL-6 and IL-8, as per manufacture's protocol (R&D Systems; Human IL-6 DuoSet ELISA, Human IL-8/CXCL8 DuoSet ELISA). The raw assay data were analyzed using GraphPad Prism 9 software to perform a non-linear regression.

[3] = tested on: IL-6 secretion in human whole blood cultures stimulated with HKCA; assay: IL-6 production in human whole blood cultures stimulated with heat-killed Candida albicans; assay type: cell-based; conditions: 24 hours, 1 μg/ml alone, combination 1 μg/ml BFB759 + 0.5 μg/ml adalimumab
From the text: Materials included Human peripheral blood drawn from 5 healthy donors. Materials also included Anti-human TNF alpha (Adalimumab Biosimilar), BioXCell cat #SIM0001, lot #8024221F1; Heat-killed Candida albicans (HKCA), InvivoGen cat #tlrl-hkca, lot #6292-44-02; RPMI 1640 with L-glutamine and HEPES, Corning cat #10-041-CM; and Human IL-6 DuoSet ELISA, R and D Systems cat #DY206-05. Blood was drawn into heparin tubes from healthy volunteers. Whole blood cultures comprised of whole blood diluted with plain RPMI 1640 medium were set up in sterile 5.0 ml polypropylene snap cap culture tubes. One of the following treatments were added for 1 hour prior to either being left unstimulated or receiving stimulation with 1.5×10^6 cells heat-killed Candida albicans: medium alone (cells alone), 1 μg/ml IgG1 isotype control antibody alone, 1 μg/ml BFB759 alone, 1 μg/ml adalimumab alone, or one of two combination treatments of 1 μg/ml IgG1 isotype control antibody+0.5 μg/ml adalimumab or 1 μg/ml BFB759+0.5 μg/ml adalimumab. The final volume of each culture was 1.0 ml. Cultures were incubated for 24 hours at 37° C./5% CO2. Supernatants harvested from each culture in duplicate were frozen at −80° C. until assayed in duplicate for IL-6 levels by ELISA.

[4] = tested on: normal human dermal fibroblasts (NHDF); assay: IL-6 and IL-8 production in NHDF stimulated with cytokine combo incl. TNF-α; assay type: cell-based; conditions: cytokine combo IL-1α/β, IL-36α/β/γ, antibodies 0-20 ug/ml, BFB759 0.5 ug/ml in combination
Description: as §2, with “adalimumab” for “Secukinumab”, “isotype” for “Isotype”

[5] = tested on: TARC expression in PBMCs stimulated with HDM and IL-4; assay: TARC in PBMCs treated by HDM and hIL-4; assay type: cell-based, human; conditions: HDM 10 ug/ml, IL-4 750 ug/ml; three antibody concentrations
Description: as §1
Dupilumab is approved for treatment of AD (Atopic Dermatitis). It inhibits IL-4/13 signaling by blocking their binding to IL-4Ra. […] (FIG. 15)
In the data shown in FIG. 15, HDM was used at 10 ug/ml, IL-4 was used at […], antibodies were at three different concentrations as shown in the graph. Data shown are mean±s.d.

## CCCS(=O)(=O)N[C@H]1C[C@@H](N(C)c2ncnc3[nH]ccc23)C1 [Abrocitinib]
[1]; HDM 10 ug/ml, JAKi and dexamethasone 0.1 nM, 10 nM, 1 uM, BFB759 1 ug/ml in combination
  inhibition of TARC in HDM stimulated cells: dose dependent inhibition

## Secukinumab: anti-IL-17A antibody [reference compound]
[2]
  IL-6 production: limited inhibition
  IL-8 production: limited inhibition

## adalimumab [reference compound]
[3]
  inhibition of IL-6 secretion: inhibit IL-6 secretion
[4]
  IL-6 production: limited inhibition
  IL-8 production: limited inhibition

## Dupilumab: approved for Atopic Dermatitis; inhibits IL-4/13 signaling by blocking their binding to IL-4Ra
[1]; HDM stimulated PBMCs, same assay
  inhibition of TARC level: does not inhibit TARC level significantly
[1]; antibodies 30 ug/ml, HDM 10 ug/ml
  inhibition of HDM induced TARC level, FIG. 13: does not or minimally inhibits
[5]
  inhibition of TARC expression in the HDM and IL-4 model: partially inhibits
